According to PMC4537157 (PLoS ONE, 2015):

Experiments:
Assay type in all cases: cell-based
human newborn cord blood = assay: Whole blood cytokine assay (TNF, IL-1β ELISA), newborn cord blood; details: 6 h
Procedure: (§1) Assessment of TLRA activity in whole blood was completed as previously described. […] Vehicle (DMSO) was added separately as a control. Suspensions containing 200 μl/well were gently mixed by pipetting and incubating for 6 h at 37°C in a humidified incubator at 5% CO2. After culture, plates were centrifuged at 500 x g and 100–150 μl of supernatant was carefully removed by pipetting without disturbing the cell pellet. Supernatants derived from human leukocyte stimulations were assayed by enzyme-linked immunoabsorbent assay (ELISA) for TNF (BD Biosciences, San Jose, CA, USA) and IL-1β (eBiosciences, San Diego, CA). Experiments were performed in triplicates.
(§2) Compound concentrations are shown in μM. Data are shown as mean ± SEM of n = 6–8.
(§3) Compound concentrations are shown in μM/ml. Cytokine production is shown as pg/ml. (PDF) Click here for additional data file.

[1] = tested on: human adult peripheral blood; assay: Whole blood cytokine assay (TNF, IL-1β ELISA), adult peripheral blood; details: 6 h
Procedure: as §1, §2, §3

human newborn MoDCs = assay: TNF production by newborn monocyte-derived dendritic cells; details: human neonatal MoDCs, tested 0.1–10 μM, 24 h
[2] = tested on: human newborn and adult leukocytes; assay: Whole blood and MoDC assays, overall potency as summarised in the discussion; details: Leukocyte, Tested in both whole blood and MoDC assays
Procedure: as §1

SMILES | IL-1β production (human newborn cord blood; 0.01 µM) [pg/mL] | TNF-α production (human newborn cord blood; 0.01 µM) [pg/mL] | IL-1β production (human newborn cord blood; 0.03 µM) [pg/mL] | TNF-α production (human newborn cord blood; 0.03 µM) [pg/mL] | IL-1β production (human newborn cord blood; 0.1 µM) [pg/mL] | TNF-α production (human newborn cord blood; 0.1 µM) [pg/mL] | IL-1β production (human newborn cord blood; 0.3 µM) [pg/mL] | TNF-α production (human newborn cord blood; 0.3 µM) [pg/mL] | IL-1β production (human newborn cord blood; 1 µM) [pg/mL] | TNF-α production (human newborn cord blood; 1 µM) [pg/mL] | IL-1β production (human newborn cord blood; 10 µM) [pg/mL] | TNF-α production (human newborn cord blood; 10 µM) [pg/mL] | IL-1β production ([1]; 0.01 µM) [pg/mL] | TNF-α production ([1]; 0.01 µM) [pg/mL] | IL-1β production ([1]; 0.03 µM) [pg/mL] | TNF-α production ([1]; 0.03 µM) [pg/mL] | IL-1β production ([1]; 0.1 µM) [pg/mL] | TNF-α production ([1]; 0.1 µM) [pg/mL] | IL-1β production ([1]; 0.3 µM) [pg/mL] | TNF-α production ([1]; 0.3 µM) [pg/mL] | also measured
CCCCc1nc2c(N)nc3ccccc3c2n1Cc1cccc(CN)c1 [Meta-amine] | 15.63 | 79.15 | 15.63 | 78.72 | 15.63 | 94.65 | 15.63 | 93.72 | 271.87 | 1779.40 | 6199.29 | 32214.43 | 15.63 | 23.44 | 15.63 | 23.44 | 15.63 | 20.83 | 15.63 | 214.57 | IL-1β production ([1]; 1 µM): 232.86 pg/mL; TNF-α production ([1]; 1 µM): 3739.68 pg/mL; IL-1β production ([1]; 10 µM): 2699.66 pg/mL; TNF-α production ([1]; 10 µM): 19087.54 pg/mL
CCCCc1nc2c(N)nc3ccccc3c2n1Cc1ccc(CN)cc1 [Para-amine] | 15.63 | 64.05 | 15.63 | 120.31 | 15.63 | 70.49 | 15.63 | 381.52 | 387.41 | 1780.16 | 2820.52 | 16542.73 | 15.63 | 23.44 | 15.63 | 121.74 | 15.63 | 856.34 | 15.63 | 3653.12 | IL-1β production ([1]; 1 µM): 419.70 pg/mL; TNF-α production ([1]; 1 µM): 6740.50 pg/mL; IL-1β production ([1]; 10 µM): 2008.09 pg/mL; TNF-α production ([1]; 10 µM): 18165.00 pg/mL
CCOCc1nc2c(N)nc3ccccc3c2n1CC(C)(C)O [R848, resiquimod, reference compound] | 15.63 | 95.80 | 15.63 | 84.29 | 46.36 | 68.30 | 15.63 | 210.98 | 415.65 | 654.85 | 322.08 | 1574.58 | 15.63 | 23.44 | 15.63 | 23.44 | 14.94 | 284.13 | 15.63 | 549.52 | IL-1β production ([1]; 1 µM): 191.49 pg/mL; TNF-α production ([1]; 1 µM): 3939.41 pg/mL; IL-1β production ([1]; 10 µM): 1922.12 pg/mL; TNF-α production ([1]; 10 µM): 19454.73 pg/mL; Concentration inducing TNF (human newborn MoDCs): 1 to 10 µM; EC50 [2]: 1000 nM
